Source: patent US8748618B2, “Inhibitors of inv(16) leukemia” (University of Virginia Patent Foundation, priority 2009, dated 2014)

What was measured:
[1] = target: CBFβ-SMMHC:RD (CBFβ-SMMHC binding to the Runt domain); assay: FRET assay, inhibition of CBFβ-SMMHC binding to the Runt domain; conditions: for IC50 FRET (CBFβ-SMMHC:RD, 20 nM both): 20 nM both proteins
Procedure: FRET assay. […] We fused the green fluorescent protein derivative Cerulean to the N-terminus of the Runt domain and the green fluorescent protein derivative Venus to the N-terminus of CBFβ-SMMHC (as well as to CBFβ (Gorczynski, Grembecka et al. 2007)). The ratio of the emission intensities at 525 nm and 474 nm, measured after excitation at 433 nm, was used as the readout in this assay. The dynamic range for the FRET assay was determined by adding a 30-fold excess of untagged CBFβ-SMMHC (or CBFβ in the case of CBFβ—Runt domain binding) to the assay and the associated change in the FRET ratio was defined as 100% inhibition.
As shown by Shoichet and co-workers (Seidler, McGovern et al. 2003), a primary source of false positives in any screen is micelle formation. […] A substantial loss of activity in the presence of detergent is a hallmark of inhibition by micelle formation and such compounds are thus identified as false positives. In addition, we are also incubating compound with protein and checking by mass spectroscopy to ensure that positive hits are not acting by covalent addition to either of the proteins.

CBFβ = CBFβ (Homo sapiens (Human), UniProt Q13951); assay: NMR chemical shift perturbation with CBFβ; assay type: binding; conditions: for NMR with CBFβ + 250 uM compound, CSP G 112: residue G 112; for NMR with CBFβ + 250 uM compound, CSP K 98: residue K 98; for Precipitation in the NMR sample: 250 uM compound with CBFβ
Chain of CBFβ (Q13951 1-141, species assumed): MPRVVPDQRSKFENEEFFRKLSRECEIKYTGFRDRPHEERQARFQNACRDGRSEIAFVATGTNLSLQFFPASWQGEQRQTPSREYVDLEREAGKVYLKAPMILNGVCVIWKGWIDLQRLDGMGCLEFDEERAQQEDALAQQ
From the text: Validation of binding of a small molecule inhibitor to its protein target is an essential step in developing potent inhibitors. This can be readily achieved using either NMR spectroscopy or X-ray crystallography. In the case of X-ray crystallography, this is achieved by co-crystallization of the protein with the ligand and determination of the structure. In the case of NMR spectroscopy, the structure of a compound-protein complex can also be determined. In addition, chemical shift perturbations of the protein NMR spectrum (typically 2D ^15N—^1H HSQC or ^13C—^1H HSQC) in the presence of compounds can both confirm binding to the target and localize the binding site on a protein (Pellecchia, Sem et al. 2002; Salvatella and Giralt 2003). The latter method is a quick and efficient method to confirm binding to the protein and to determine the binding site when appropriate labeled samples are available and the resonance assignments are known. Such data can also be used to dock the small molecule to the protein. Because the structure of CBFβ has been solved by NMR (Huang, Peng et al. 1999), resonance assignments are available and we have employed this approach as an additional screen to ensure the validity of the inhibitors we are developing and to determine the binding site (see below).

ME-1 cells [2] = assay: Apoptosis by flow cytometry, Annexin V/PI positivity; assay type: cell-based, human; conditions: FIG. 4C
From the text: (§1) We have tested several of the compounds we have synthesized for their effects on ME-1 cells, a leukemia cell line harboring the inv(16) (Yanagisawa, Horiuchi et al. 1991). […] AI-4-57 has also been tested against the Kasumi-1, Jurkat, and RS4; 11 leukemia cell lines (FIG. 4.B). […] We have also examined effects on apoptosis using flow cytometry to measure Annexin V/PI (propidium iodide) positivity. […] The selectivity for specific cell lines and the correlation of activity in the FRET assay with effects on inv(16) cells all support the hypothesis that the compounds are hitting the desired target.

ME-1 cells [3] = assay: MTT viability assay, growth of ME-1 cells; assay type: cell-based, human; conditions: MTT, FIG. 4A
From the text: as §1
The dimer with a 7 atom linker (AI-4-62) has been tested for effects on the growth of the ME-1 cell line (see FIG. 7), a leukemia cell line with the inv(16).

[4] = ip injection; NCI Developmental Therapeutics website; cited from earlier work
NCI 60 cell lines = conditions: for 79% of the cell lines; cited from earlier work

IC50 FRET (CBFβ-SMMHC:RD, 20 nM both) ([1]; Table 1 monomers)	Compound	NMR with CBFβ + 250 uM compound, CSP G 112 (CBFβ; 250 uM compound) [ppm]	NMR with CBFβ + 250 uM compound, CSP K 98 (CBFβ; 250 uM compound)	NMR with CBFβ + 250 uM compound, CSP G 112/K 98 (in words) (CBFβ; 250 uM compound)	also measured
Interference with assay	c1ccc(-c2nc3cc(N4CCCCC4)ccc3[nH]2)nc1 [AI-10-82]	0.032	0.016 ppm		
Interference with assay	c1ccc(-c2nc3cc(N4CCCC4)ccc3[nH]2)nc1 [AI-10-83]	0.087	0.039 ppm		NMR with CBFβ + 250 uM compound, CSP L 97 (CBFβ; 250 uM compound, residue L 97): 0.034 ppm
	c1ccc(-c2nc3cc(-n4ccnc4)ccc3[nH]2)nc1 [AI-10-88]			No CSP	
	FC(F)(F)Oc1cc(-c2cccnc2)c2[nH]c(-c3ccccn3)nc2c1 [AI-10-96]			No CSP	
Interference with assay	FC(F)(F)Oc1cc2nc(-c3ccccn3)[nH]c2cc1N1CCCC1 [AI-10-97]	0.012	0.006 ppm		
	c1cc(-c2nc3cc(N4CCCC4)ccc3[nH]2)ncc1OCCOCCOc1ccc(-c2nc3cc(N4CCCC4)ccc3[nH]2)nc1 [AI-10-98]				IC50 FRET (CBFβ-SMMHC:RD, 20 nM both) ([1]; Table 2 dimers): Interference with assay
Interference with assay	COc1ccc(-c2nc3cc(N4CCCC4)ccc3[nH]2)nc1 [AI-10-101]				
	Cc1ccc2[nH]c(-c3ccccn3)nc2c1C [LD-1-23]			No CSP	Precipitation in the NMR sample (CBFβ): some precipitation
	CCOc1ccc2[nH]c(-c3ccccn3)nc2c1 [LD-1-29]	0.026	no change		Apoptosis (AnnexinV/PI) (ME-1 cells [2]; 40 μM): substantial apoptosis; Percentage of apoptotic cells (AnnexinV/PI) (ME-1 cells [2]; 3 different concentrations): clear dose-dependent increase in the percentage of apoptotic cells; Growth of ME-1 cells (ME-1 cells [3]): effective inhibition of growth
	Fc1ccc2[nH]c(-c3ccccn3)nc2c1 [LD-1-31]			No CSP	Precipitation in the NMR sample (CBFβ): Strong precipitation
	COc1c(F)cc2[nH]c(-c3ccccn3)nc2c1F [LD-1-39]			No CSP	
	COc1ccc(-c2nc3cc(OC)ccc3[nH]2)c(O)c1 [LD-1-73]				Δ110 [1]: Δ110 = 30%
	COc1ccc2[nH]c(-c3cccc(C)n3)nc2c1 [LD-2-89]				Δ333 [1]: Δ333 = 17%
	COc1ccnc(-c2nc3cc(OC)ccc3[nH]2)c1 [LD-2-101]			No CSP	
	COc1ccc2[nH]c(-c3ccccn3)nc2c1 [NCI-320656, reference compound]	0.039	0.026 ppm		Tolerated by mice [4]: up to 200 mg/kg/day; GI50 (NCI 60 cell lines): ≥ 100 µM

Compound	IC50 FRET (CBFβ-SMMHC:RD, 20 nM both) ([1]; Table 1 monomers)	NMR with CBFβ + 250 uM compound, CSP G 112 (CBFβ; 250 uM compound) [ppm]	NMR with CBFβ + 250 uM compound, CSP K 98 (CBFβ; 250 uM compound)	NMR with CBFβ + 250 uM compound, CSP G 112/K 98 (in words) (CBFβ; 250 uM compound)	also measured
CN(C)c1ccc2[nH]c(-c3ccccn3)nc2c1 [LD-2-63]	Interference with assay	0.037	0.023 ppm		
